Measurements: patent US20260325605A1, “INHIBITORS” (Zealand Pharma A/S, priority 2022, published 2026)

Assays:
[1] = tested on: T-cell activation in rat whole blood; experiment: Example 4: IL-17A release in thapsigargin stimulated rat whole blood; assay type: cell-based, rat (Lewis or Sprague-Dawley); details: 24 Hr, at least 2 replicates, unit inferred, read-out: IC50 (inhibition of IL-17A release)
Description: Rat whole blood was used to assess the potency of Kv1.3 inhibitor peptides on T-cell activation as determined by IL-17A release after stimulation with thapsigargin. Addition of thapsigargin results in activation of a signalling cascade ending up in activation of T cell proliferation and cytokine production where the Kv1.3 ion channel plays a key role, so activity of Kv1.3 inhibitors in primary cells can be measured in this experimental system.
Rat whole blood was obtained from healthy, naïve Lewis or Sprague-Dawley rats that were terminally bleed from the heart using Sodium Heparin blood sampling tubes for collection. Peptides were diluted to 4× final testing concentrations in assay buffer (DMEM+GlutaMAX), GlutaMAX is a medium comprising 3.97 mM L-alanine-L-glutamine (Gibco Cat #61965026) supplemented with 25 mM HEPES buffer, 1 mM Sodium Pyruvate, 100 units/ml Penicillin, 100 μg/ml Streptomycin and 0.05% Casein from bovine milk (Sigma-Aldrich)) and 25 μl was added to wells of a 96 well plate. Then 50 μl whole rat blood was added and incubated for minimum 5 minutes at room temperature to allow compound binding. Then 25 μl 40 μM thapsigargin diluted in assay buffer was added to all wells of the assay plates to activate the cells, followed by incubation for 24 Hr at 37° C./5% CO2 in a humidified box. The assay plates were centrifuged for 10 min at 300 g at 4° C. and the supernatants were transferred to new plates. The concentrations of IL-17A released to the supernatants were measured using a Rat IL-17A ELISA Kit (Abcam Cat #ab214028) as recommended by the manufacturer. Samples were diluted 2.5-fold by transferring 20 μl of the supernatants to wells on ELISA plates containing 30 μl buffer 75BS from the detection kit.
Data from peptides eliciting an inhibition of IL-17A were normalised relative to full thapsigargin activation (no inhibitor added) and no activation controls (addition of assay buffer instead of thapsigargin) to calculate the IC50 from the concentration response curve.
Results are shown in Table 5, expressed as IC50, with standard deviation (IC50_SD). All values are derived from at least 2 replicates. The biological effects ex vivo show a correlation with the potency of the peptides.

Kv1.3 = target: T1, Kv1.3 (Homo sapiens, UniProt P22001); experiment: Patch clamp assay (QPatch), Kv1.3; assay type: cell-based; details: CHO cells stably expressing human Kv1.3, read-out: Potency IC50, Kv1.3
T1 construct: expressed in transfected cells

Kv1.1 = target: T2, Kv1.1 (Homo sapiens, UniProt Q09470); experiment: Patch clamp assay (QPatch), Kv1.1; assay type: cell-based; details: for IC50: QPatch, CHO cells stably expressing human Kv1.1, read-out: Potency IC50, Kv1.1; for Selectivity Kv1.1/Kv1.3: ratio of IC50 Kv1.1/Kv1.3
T2 construct: expressed in transfected cells

Kv1.2 = target: T3, Kv1.2 (Homo sapiens, UniProt P16389); experiment: Patch clamp assay (QPatch), Kv1.2; assay type: cell-based; details: for IC50: QPatch, CHO cells stably expressing human Kv1.2, read-out: Potency IC50, Kv1.2; for Selectivity Kv1.2/Kv1.3: ratio of IC50 Kv1.2/Kv1.3
T3 construct: expressed in transfected cells
Description: Selectivity of Kv1.3 inhibitor peptides for Kv1.3 over other potassium ion channels (Kv1.1, Kv1.2 and Kv1.6) was determined using patch clamp assay.
Chinese Hamster Ovary (CHO) cell lines stably expressing exogenous human α-subunits of each potassium ion channel were grown and passaged under standard culture conditions.
The automated, chip-based planar patch clamp device QPatch® was used to quantitate the ionic currents. All recordings were made in the conventional whole-cell configuration after establishment of gigaohm seals. […] During experiments 0.1% (v/v) BSA was included as a vehicle in all external recording solutions. Currents were elicited from a holding potential of −80 mV using a voltage protocol, which shifted the voltage to 30 mV for 500 ms every 15 s.
Concentration-response relationships were established by cumulatively applying seven escalating concentrations of test sample to an individual cell with a recording period of 2 min per compound application.
The efficacy was determined as the mean charge for the last three sweeps at the end of each concentration application period from the cursor positions. The percent inhibition for each test dose application period was calculated as the reduction in mean cursor value (charge) relative to the cursor value measured at the end of the vehicle period and used to calculate the IC50 from the concentration response curve.

Kv1.6 = target: T4, Kv1.6 (Homo sapiens, UniProt P17658); experiment: Patch clamp assay (QPatch), Kv1.6; assay type: cell-based; details: for IC50: QPatch, CHO cells stably expressing human Kv1.6, read-out: Potency IC50, Kv1.6; for Selectivity Kv1.6/Kv1.3: ratio of IC50 Kv1.6/Kv1.3
T4 construct: expressed in transfected cells
T4 sequence (P17658 whole entry): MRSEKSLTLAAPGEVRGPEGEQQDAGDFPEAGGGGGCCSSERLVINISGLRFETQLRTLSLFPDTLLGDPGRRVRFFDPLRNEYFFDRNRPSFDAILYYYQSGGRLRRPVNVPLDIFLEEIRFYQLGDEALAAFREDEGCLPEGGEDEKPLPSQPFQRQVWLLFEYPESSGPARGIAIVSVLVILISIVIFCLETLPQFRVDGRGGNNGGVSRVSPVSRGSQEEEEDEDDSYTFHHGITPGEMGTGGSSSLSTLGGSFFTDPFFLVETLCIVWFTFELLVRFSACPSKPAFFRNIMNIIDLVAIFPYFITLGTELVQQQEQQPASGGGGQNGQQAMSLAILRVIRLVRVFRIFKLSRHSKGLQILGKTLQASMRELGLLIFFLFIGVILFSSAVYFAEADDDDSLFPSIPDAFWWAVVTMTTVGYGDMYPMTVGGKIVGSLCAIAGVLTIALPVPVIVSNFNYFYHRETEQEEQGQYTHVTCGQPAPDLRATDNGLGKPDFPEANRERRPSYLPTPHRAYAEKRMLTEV

T1 sequence (P22001 whole entry): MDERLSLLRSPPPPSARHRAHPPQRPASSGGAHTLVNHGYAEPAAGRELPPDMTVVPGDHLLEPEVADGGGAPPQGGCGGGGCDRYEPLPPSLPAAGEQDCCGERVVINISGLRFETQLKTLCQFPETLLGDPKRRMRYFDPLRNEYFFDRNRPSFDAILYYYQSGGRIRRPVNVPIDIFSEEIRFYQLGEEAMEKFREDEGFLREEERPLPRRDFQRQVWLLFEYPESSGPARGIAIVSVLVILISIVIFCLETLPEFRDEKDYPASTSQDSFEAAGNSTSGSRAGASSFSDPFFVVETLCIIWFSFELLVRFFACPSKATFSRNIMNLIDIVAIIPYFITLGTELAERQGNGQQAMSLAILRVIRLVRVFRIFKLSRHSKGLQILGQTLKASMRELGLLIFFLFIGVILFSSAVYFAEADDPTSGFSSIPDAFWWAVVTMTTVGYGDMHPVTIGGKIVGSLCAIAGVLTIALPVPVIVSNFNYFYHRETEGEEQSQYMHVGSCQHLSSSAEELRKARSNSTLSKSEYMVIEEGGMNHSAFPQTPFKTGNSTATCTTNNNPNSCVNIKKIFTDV
T3 sequence (P16389 whole entry): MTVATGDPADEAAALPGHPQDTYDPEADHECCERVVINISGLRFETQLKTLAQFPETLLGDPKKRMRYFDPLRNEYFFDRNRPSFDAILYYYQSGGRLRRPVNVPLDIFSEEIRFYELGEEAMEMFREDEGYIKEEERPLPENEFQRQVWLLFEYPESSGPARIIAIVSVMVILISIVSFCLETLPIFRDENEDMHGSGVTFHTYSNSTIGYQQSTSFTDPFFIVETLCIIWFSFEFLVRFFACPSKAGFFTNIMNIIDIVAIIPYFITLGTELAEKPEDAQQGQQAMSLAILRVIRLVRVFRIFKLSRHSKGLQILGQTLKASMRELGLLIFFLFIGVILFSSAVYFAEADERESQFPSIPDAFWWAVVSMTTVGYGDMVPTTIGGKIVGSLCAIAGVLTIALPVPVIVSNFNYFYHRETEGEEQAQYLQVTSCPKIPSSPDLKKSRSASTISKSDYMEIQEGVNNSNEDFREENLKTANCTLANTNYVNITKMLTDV
T2 sequence (Q09470 whole entry): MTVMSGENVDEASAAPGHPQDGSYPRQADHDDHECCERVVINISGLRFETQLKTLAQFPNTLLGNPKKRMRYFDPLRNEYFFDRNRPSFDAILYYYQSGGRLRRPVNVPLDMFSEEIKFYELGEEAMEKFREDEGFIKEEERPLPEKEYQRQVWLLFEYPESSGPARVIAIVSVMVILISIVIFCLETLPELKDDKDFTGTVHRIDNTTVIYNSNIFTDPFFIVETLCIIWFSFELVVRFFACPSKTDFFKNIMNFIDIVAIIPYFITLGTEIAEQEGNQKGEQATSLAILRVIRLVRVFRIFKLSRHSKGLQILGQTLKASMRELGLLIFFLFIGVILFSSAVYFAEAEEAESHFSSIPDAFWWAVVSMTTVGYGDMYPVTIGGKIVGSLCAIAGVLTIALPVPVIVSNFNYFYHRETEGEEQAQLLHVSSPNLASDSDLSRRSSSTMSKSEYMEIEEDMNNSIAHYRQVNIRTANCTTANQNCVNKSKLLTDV

Ac-LRC(1)SASVEC(2)KQKC(3)LAAIGSIFGKC(1)MNKKC(2)KC(3)YPR-OH [Peptide 123]
IC50 [1]: 0.36 nM

Ac-LRC(1)SASVEC(2)KQKC(3)LAAIGSIFGKC(1)[Nle]NKKC(2)KC(3)YPR-OH [Peptide 122]
IC50 [1]: 0.9 nM

H-AAAISCVGSPECPPKCRAQGCKNGKCMNRKCKCYYC-NH2 [Vm24, reference compound]
IC50 (Kv1.3): 0.15 nM
IC50 (Kv1.1): 0.097 nM
Selectivity Kv1.1/Kv1.3 (Kv1.1): 0.65
IC50 (Kv1.2): 4.7 nM
Selectivity Kv1.2/Kv1.3 (Kv1.2): 31
IC50 (Kv1.6): 21 nM
Selectivity Kv1.6/Kv1.3 (Kv1.6): 139

H-C(1)SASVEC(2)KQKC(3)LKAIGC(4)IFGKC(1)[Nle]NKKC(2)KC(3)YPC(4)-NH2 [Peptide 89]
IC50 [1]: 1.1 nM

H-LRC(1)SASVEC(2)KQKC(3)LKAIGSIFGKC(1)[Nle]NKKC(2)KC(3)YPR-OH [Peptide 115]
IC50 [1]: 2.1 nM

H-NMDMRC(1)KASVEC(2)KQKC(3)LKAIGSIFGKC(1)MNKKC(2)KC(3)YPR-NH2 [Peptide 26]
IC50 (Kv1.3): 0.09 nM
IC50 (Kv1.1): > 3000 nM
Selectivity Kv1.1/Kv1.3 (Kv1.1): >34200
IC50 (Kv1.2): 67 nM
Selectivity Kv1.2/Kv1.3 (Kv1.2): 761
IC50 (Kv1.6): 363 nM
Selectivity Kv1.6/Kv1.3 (Kv1.6): 4144

H-NMDMRC(1)SASVEC(2)KQKC(3)LAIGSIFGKC(1)MNKKC(2)KC(3)YPR-NH2 [Peptide 55]
IC50 (Kv1.3): 2.41 nM
IC50 (Kv1.1): > 3000 nM
Selectivity Kv1.1/Kv1.3 (Kv1.1): >1200
IC50 (Kv1.2): 291 nM
Selectivity Kv1.2/Kv1.3 (Kv1.2): 121
IC50 (Kv1.6): > 3000 nM
Selectivity Kv1.6/Kv1.3 (Kv1.6): >1200

H-NMDMRC(1)SASVEC(2)KQKC(3)LKAIGSIFGKC(1)MNKKC(2)VC(3)YPR-NH2 [Peptide 39]
IC50 [1]: 2.8 nM

H-NMDMRC(1)SASVEC(2)KQKC(3)LKAIHSIFGKC(1)MNKKC(2)KC(3)YPR-NH2 [Peptide 34]
IC50 [1]: 0.7 nM

H-NMDMRC(1)SASVEC(2)KQKC(3)LKAYGSIFGKC(1)MNKKC(2)KC(3)YPR-NH2 [Peptide 59]
IC50 (Kv1.3): 0.34 nM
IC50 (Kv1.1): > 3000 nM
Selectivity Kv1.1/Kv1.3 (Kv1.1): >8800
IC50 (Kv1.2): 145 nM
Selectivity Kv1.2/Kv1.3 (Kv1.2): 426
IC50 (Kv1.6): > 3000 nM
Selectivity Kv1.6/Kv1.3 (Kv1.6): >8800

H-NMDMRC(1)SASVEC(2)KQKC(3)LKRIGSIFGKC(1)MNKKC(2)KC(3)YPR-NH2 [Peptide 57]
IC50 (Kv1.3): 0.3 nM
IC50 (Kv1.1): > 3000 nM
Selectivity Kv1.1/Kv1.3 (Kv1.1): >9900
IC50 (Kv1.2): 57 nM
Selectivity Kv1.2/Kv1.3 (Kv1.2): 187
IC50 (Kv1.6): 932 nM
Selectivity Kv1.6/Kv1.3 (Kv1.6): 3062

H-NMDMRC(1)SASVEC(2)KQKC(3)LKYIGSIFGKC(1)MNKKC(2)KC(3)YPR-NH2 [Peptide 56]
IC50 (Kv1.3): 0.12 nM

H-NMDMRC(1)SASVEC(2)KQKC(3)RKAIGSIFGKC(1)MNKKC(2)KC(3)YPR-NH2 [Peptide 52]
IC50 (Kv1.3): 0.25 nM

H-NMDMRC(1)SASVEC(2)KQKC(3)YKAIGSIFGKC(1)MNKKC(2)KC(3)YPR-NH2 [Peptide 51]
IC50 (Kv1.3): 0.27 nM

H-NMEMRC(1)SASVEC(2)KQKC(3)LKAIGSIFGKC(1)MNKKC(2)KC(3)YPR-OH [Peptide 13]
IC50 (Kv1.3): 0.11 nM
IC50 (Kv1.1): > 3000 nM
Selectivity Kv1.1/Kv1.3 (Kv1.1): >27600
IC50 (Kv1.2): 228 nM
Selectivity Kv1.2/Kv1.3 (Kv1.2): 2093
IC50 (Kv1.6): > 3000 nM
Selectivity Kv1.6/Kv1.3 (Kv1.6): >27600

H-N[Nle]D[Nle]RC(1)SASVEC(2)EQKC(3)LKAIGSIFGKC(1)[Nle]NKKC(2)KC(3)YPR-NH2 [Peptide 44]
IC50 [1]: 0.99 nM

H-N[Nle]D[Nle]RC(1)SASVEC(2)KQKC(3)LKAIGSIFGKC(1)MNKKC(2)KC(3)YPR-NH2 [Peptide 40]
IC50 (Kv1.3): 0.15 nM

H-N[Nle]D[Nle]RC(1)SASVEC(2)KQKC(3)LKAIGSIFGKC(1)[Nle]NKKC(2)KC(3)YPR-NH2 [Peptide 41]
IC50 (Kv1.3): 0.26 nM
IC50 (Kv1.1): > 3000 nM
Selectivity Kv1.1/Kv1.3 (Kv1.1): >11600
IC50 (Kv1.2): 113 nM
Selectivity Kv1.2/Kv1.3 (Kv1.2): 436
IC50 (Kv1.6): 1830 nM
Selectivity Kv1.6/Kv1.3 (Kv1.6): 7073

H-N[Nle]D[Nle]RC(1)SASVEC(2)QQKC(3)LKAIGSIFGKC(1)[Nle]NKKC(2)KC(3)YPR-NH2 [Peptide 45]
IC50 [1]: 1.1 nM

H-PIDERC(1)SASVEC(2)KQKC(3)LAAIGSIFGKC(1)[Nle]NKKC(2)KC(3)YPR-OH [Peptide 104]
IC50 [1]: 0.87 nM

H-P[Nle]D[Nle]RC(1)SASVEC(2)AQKC(3)LAAIGSIFGKC(1)MNKKC(2)KC(3)YPR-OH [Peptide 106]
IC50 [1]: 0.32 nM

H-P[Nle]D[Nle]RC(1)SASVEC(2)KEKC(3)L[homo-Gln]AIGSIFGKC(1)[Nle]NKKC(2)KC(3)YPR-NH2 [Peptide 88]
IC50 [1]: 1.4 nM

H-P[Nle]D[Nle]RC(1)SASVEC(2)KQKC(3)LKAIGC(4)IFGKC(1)[Nle]NKKC(2)KC(3)YPC(4)-OH [Peptide 86]
IC50 [1]: 1.1 nM

H-P[Nle]E[Nle]RC(1)SASVEC(2)KQKC(3)LLAIGSIFGKC(1)[Nle]NKKC(2)KC(3)YPR-OH [Peptide 103]
IC50 [1]: 0.5 nM

H-RSCIDTIPKSRCTAFQCKHSMKYRLSFCRKTCGTC-OH [ShK, reference compound]
IC50 (Kv1.2): 11 nM
IC50 (Kv1.6): 0.19 nM

H-S[Nle]D[Nle]RC(1)SASVEC(2)AQKC(3)LAAIGSIFGKC(1)MNKKC(2)KC(3)YPR-NH2 [Peptide 82]
IC50 (Kv1.3): 0.16 nM

H-S[Nle]D[Nle]RC(1)SASVEC(2)KEKC(3)LQAIGSIFGKC(1)[Nle]NKKC(2)KC(3)YPR-NH2 [Peptide 87]
IC50 [1]: 0.69 nM

H-S[Nle]D[Nle]RC(1)SASVEC(2)KQKC(3)LAAIGC(4)IFGKC(1)[Nle]NKKC(2)KC(3)YPC(4)-NH2 [Peptide 90]
IC50 [1]: 0.73 nM

H-S[Nle]D[Nle]RC(1)SASVEC(2)KQKC(3)LKAIGSIFGKC(1)MNKKC(2)KC(3)YQ-NH2 [Peptide 76]
IC50 [1]: 1.6 nM

H-S[Nle]D[Nle]RC(1)SASVEC(2)KQKC(3)LKAIGSIFGKC(1)MNKKC(2)KC(3)[F(4-CH3)]PR-NH2 [Peptide 96]
IC50 [1]: 0.54 nM

H-S[Nle]D[Nle]RC(1)SASVEC(2)KQKC(3)LKAIGSIFGKC(1)MNKKC(2)KC(3)[F(4-F)]PR-NH2 [Peptide 94]
IC50 [1]: 0.34 nM

H-S[Nle]D[Nle]RC(1)SASVEC(2)KQKC(3)LKAIGSIFGKC(1)MNKKC(2)KC(3)[F(4-NO2)]PR-NH2 [Peptide 95]
IC50 [1]: 1.3 nM

H-S[Nle]D[Nle]RC(1)SASVEC(2)KQKC(3)LKAIGSIFGKC(1)[Nle]NKKC(2)KC(3)YPR-OH [Peptide 68]
IC50 [1]: 0.52 nM

H-S[Nle]D[Nle]RC(1)SASVEC(2)KQKC(3)LKAIGSIFG[homo-Lys]C(1)MNKKC(2)KC(3)YPR-NH2 [Peptide 71]
IC50 [1]: 2.7 nM

H-S[Nle]D[Nle]RC(1)SASVEC(2)KQKC(3)LVAIGSIFGKC(1)MNKKC(2)KC(3)YPR-NH2 [Peptide 80]
IC50 [1]: 0.39 nM

H-S[Nle]D[Nle]RC(1)SASVEC(2)K[2-Amino-5-carboxypentanoyl]KC(3)LKAIGSIFGKC(1)MNKKC(2)KC(3)YPR-NH2 [Peptide 75]
IC50 [1]: 0.52 nM

H-S[Nle]D[Nle]RC(1)SASVEC(2)VQKC(3)LKAIGSIFGKC(1)MNKKC(2)KC(3)YPR-NH2 [Peptide 74]
IC50 [1]: 0.47 nM

H-S[Nle]D[Nle]RC(1)SA[Abu]VEC(2)KQKC(3)LKAIGSIFGKC(1)MNKKC(2)KC(3)YPR-NH2 [Peptide 70]
IC50 [1]: 0.93 nM
